Assays:
[1] = biological target: GSPT1 (Homo sapiens (Human), UniProt P15170+Q96SW2); experiment: GSPT1 reporter degradation assay (HEK293 hGSPT1 HiBiT-tagged cells); type: cell-based; details: 24 hour incubation
Procedure: HEK293_hGSPT1_HiBiT-tagged cells were generated using CRISPR-Cas12a technology. Briefly, ˜400,000 HEK293 cells were transiently co-transfected with precomplexed ribonuclear proteins (RNPs) consisting of 80 pmol of crRNA (IDT), 62 pmol of Cas12a protein (IDT), 3 μg of ssODN donor (IDT; AltR® modifications), 78 pmol of electroporation enhancer (IDT), and 200 ng of pMaxGFP (Lonza). The transfection was performed via nucleofection (Lonza, 4D-Nucleofector X-unit) using solution P3 and program CM-130 in a (20 μL) cuvette. Five days post-nucleofection, cells were single-cell-sorted for GFP+(transfected) cells by FACs in 96-well plates and clonally selected. Clones were screened and verified for the desired modification via targeted deep sequencing using gene-specific primers with partial Illumina adapter overhangs as previously described. In brief, clonal cell pellets were harvested, lysed, and used to generate gene-specific amplicons with partial Illumina adapters in PCR #1. Amplicons were indexed in PCR #2 and pooled with other targeted amplicons for other loci to create sequence diversity. Additionally, 10% PhiX sequencing control V3 (Illumina) was added to the pooled amplicon library prior to running the sample on a Miseq Sequencer System (Illumina) to generate paired 2×250 bp reads. Samples were demultiplexed using the index sequences, fastq files were generated, and NGS analysis was performed using CRIS.py. Final clones were authenticated using the PowerPlex fusion system (Promega) and tested negative for mycoplasma by the MycoAlert™Plus mycoplasma detection kit (Lonza).
Editing construct sequences and screening primers are outlined below (sequence from 5′ to 3′). hGSPT1Cas12acrRNA, CAGE635.GSPT1.g1: […] (SEQ ID NO: 4); CAGE635.g1.anti.ssODN: ttcctcacagtattgtgcagggtcatcaagaaaatgctta[…] CAGCCGCTCACgtcCttctctggaaccagtttcagaacttttccaattgcaatggtcttacctagaaatgaaattttaa (HiBiT tag and silent blocking modifications to prevent Cas12a recutting after integration are in upper case) (SEQ ID NO: 5); CAGE635.hGSPT1.DS.F: […] (SEQ ID NO: 6); CAGE635.hGSPT1.DS.R: GTGAA GTAGGCTTCTGCAGTC (SEQ ID NO: 7).
The GSPT1 degradation assay was carried out by harvesting the HEK 293T reporter cell lines and resuspending the cells in media formulated for reduced background fluorescence (FluoroBrite; Thermo Fisher). The respective cell lines were seeded at a density of 8,000 cells/well into white-opaque 384-well optical grade assay tissue culture plates (Greiner 781080-20). The cells were incubated overnight at 37° C. to allow for attachment to the assay plate. Dilutions of the compounds were prepared in DMSO from 10 mM compound stocks. Test compounds were added in a 10-point dilution series (typically 10 μM to […]) using a TECAN D300e Digital Dispenser with an upper limit of 0.5% final DMSO. Plates were centrifuged at 320×g for 2 minutes at room temperature, and subsequently incubated at 37° C.
After 24 hour incubation with the compounds, the plates were allowed to cool to room temperature for 10 minutes. 30 μL of HiBiT lytic buffer+1:50 HiBiT substrate Solution were added to each well. Plates were centrifuged at 320×g for 2 minutes at room temperature and then incubated with shaking at room temperature for 10 minutes covered with foil. Plates were read on a CLARIOstar microplate reader (BMG LabTech), measuring at 450 nm (donor emission) and 610 nm or 630 nm (acceptor emission). The DC50 values were determined by regression to best fit four-parameter logistic curves using GraphPad Prism.

[2] = system: IKZF2 (Helios); experiment: IKZF2 reporter degradation assay (HEK 293T IKZF2-mNeonGreen reporter cell line); type: cell-based, human; details: 1 μM compound, 24 hour incubation, HEK 293T IKZF2-mNeonGreen reporter
In short: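 HEK 293T lines stably expressing each IKZF-GGGGS×3-mNeonGreen-P2A-mScarlet reporter, 4000 cells/well in FluoroBrite medium, treated with compound (≤0.5% DMSO) for 24 h at 37 °C. Imaging measured percent mNeonGreen-positive cells, with mScarlet used for segmentation; DC50 from four-parameter logistic fit.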

[3] = biological target: human E3 ligase component cereblon (CRBN) (Homo sapiens (Human), UniProt Q96SW2); experiment: Cereblon (CRBN) target engagement, NanoBRET TE Intracellular E3 Ligase Assay in transfected HEK-293T cells; details: read-out: CRBN Binding EC50
Chain of human E3 ligase component cereblon (CRBN) (Q96SW2 whole entry): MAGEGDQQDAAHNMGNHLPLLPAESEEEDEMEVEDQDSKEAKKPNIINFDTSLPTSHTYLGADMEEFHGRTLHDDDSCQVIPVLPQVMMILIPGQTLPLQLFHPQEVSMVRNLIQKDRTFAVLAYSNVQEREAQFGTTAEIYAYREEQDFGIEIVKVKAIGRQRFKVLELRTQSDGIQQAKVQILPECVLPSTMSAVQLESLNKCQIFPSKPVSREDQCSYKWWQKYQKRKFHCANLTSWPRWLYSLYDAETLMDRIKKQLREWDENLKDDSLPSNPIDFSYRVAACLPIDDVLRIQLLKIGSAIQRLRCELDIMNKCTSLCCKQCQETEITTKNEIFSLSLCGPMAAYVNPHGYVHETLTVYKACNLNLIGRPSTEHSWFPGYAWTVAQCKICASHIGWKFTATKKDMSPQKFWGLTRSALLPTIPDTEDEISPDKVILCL
Chain of human E3 ligase component cereblon (CRBN) (Q16531 whole entry partner): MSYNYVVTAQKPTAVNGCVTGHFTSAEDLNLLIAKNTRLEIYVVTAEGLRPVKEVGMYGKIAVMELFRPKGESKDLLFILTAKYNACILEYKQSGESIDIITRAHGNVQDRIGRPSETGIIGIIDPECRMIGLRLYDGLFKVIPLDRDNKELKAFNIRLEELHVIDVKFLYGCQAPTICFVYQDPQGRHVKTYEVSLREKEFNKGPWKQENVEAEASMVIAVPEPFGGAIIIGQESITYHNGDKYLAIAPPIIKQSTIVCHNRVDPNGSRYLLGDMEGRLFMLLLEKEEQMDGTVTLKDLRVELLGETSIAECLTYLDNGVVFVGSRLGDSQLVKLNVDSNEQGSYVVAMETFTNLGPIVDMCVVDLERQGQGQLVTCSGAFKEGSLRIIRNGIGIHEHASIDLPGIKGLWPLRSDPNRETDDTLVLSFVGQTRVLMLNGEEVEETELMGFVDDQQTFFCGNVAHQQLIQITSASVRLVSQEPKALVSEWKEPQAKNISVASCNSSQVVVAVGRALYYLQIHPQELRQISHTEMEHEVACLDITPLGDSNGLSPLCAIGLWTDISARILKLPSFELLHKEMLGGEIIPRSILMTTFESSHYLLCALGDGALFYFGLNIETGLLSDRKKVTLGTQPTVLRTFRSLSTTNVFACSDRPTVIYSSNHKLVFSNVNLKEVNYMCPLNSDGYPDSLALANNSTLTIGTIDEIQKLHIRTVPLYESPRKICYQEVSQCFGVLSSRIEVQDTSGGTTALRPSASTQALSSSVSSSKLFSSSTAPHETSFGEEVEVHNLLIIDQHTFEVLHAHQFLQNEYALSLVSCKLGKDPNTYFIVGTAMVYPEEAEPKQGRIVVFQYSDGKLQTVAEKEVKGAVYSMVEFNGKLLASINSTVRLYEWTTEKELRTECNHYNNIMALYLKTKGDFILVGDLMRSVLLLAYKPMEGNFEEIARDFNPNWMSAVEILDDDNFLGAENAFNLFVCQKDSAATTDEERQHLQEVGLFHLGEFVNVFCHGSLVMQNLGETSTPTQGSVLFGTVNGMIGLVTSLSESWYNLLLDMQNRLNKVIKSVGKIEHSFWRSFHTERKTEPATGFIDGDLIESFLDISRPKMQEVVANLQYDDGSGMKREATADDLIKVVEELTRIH
In short: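 Live HEK-293T cells co-transfected overnight with NanoLuc-CRBN (CRBN at NanoLuc C-terminus) and DDB1 vectors (10:990 ng) were given CRBN tracer and an 11-point compound series for 2 h at 37° C. BRET read at 450/610 nm with extracellular NanoLuc inhibitor present; IC50 from four-parameter logistic fit.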

Chain of GSPT1 (P15170 whole entry): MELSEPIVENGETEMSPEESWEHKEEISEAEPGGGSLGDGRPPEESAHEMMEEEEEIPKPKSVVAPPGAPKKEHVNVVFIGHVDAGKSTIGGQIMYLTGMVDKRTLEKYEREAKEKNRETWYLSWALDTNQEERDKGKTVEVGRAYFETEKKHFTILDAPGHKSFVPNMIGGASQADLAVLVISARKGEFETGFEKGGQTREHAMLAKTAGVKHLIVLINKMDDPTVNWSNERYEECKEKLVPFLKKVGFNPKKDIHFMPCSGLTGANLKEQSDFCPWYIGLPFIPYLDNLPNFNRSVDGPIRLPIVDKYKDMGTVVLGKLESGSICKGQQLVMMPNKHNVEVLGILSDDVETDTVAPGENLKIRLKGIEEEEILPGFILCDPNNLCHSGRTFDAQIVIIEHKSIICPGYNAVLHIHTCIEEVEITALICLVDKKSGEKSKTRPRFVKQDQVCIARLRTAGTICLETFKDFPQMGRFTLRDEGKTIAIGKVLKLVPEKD
Chain of GSPT1 (Q96SW2 whole entry): as the sequence (Q96SW2 whole entry) above
Chain of GSPT1 (Q16531 whole entry partner): as the sequence (Q16531 whole entry partner) above

`O=C1CCC(N2Cc3cc(O[C@H]4CCCC[C@@H]4N4CC(c5ccccc5)C4)ccc3C2=O)C(=O)N1` (stereo partly drawn) [Compound 127, 3-(1-oxo-5-(((1S,2S)-2-(3-phenylazetidin-1-yl)cyclohexyl)oxy)isoindolin-2-yl)piperidine-2,6-dione] was tested, and the DC50 [1] was > 30 µM and the “IKZF2 % Degradation @ 1 μM” value [2] was 77.9%.
With `N#Cc1cc(F)ccc1C1CN([C@H]2CCCC[C@H]2Oc2ccc3c(c2)CN(C2CCC(=O)NC2=O)C3=O)C1` (stereo partly drawn) [Compound 46, 2-(1-((1S,2R)-2-((2-(2,6-dioxopiperidin-3-yl)-1-oxoisoindolin-5-yl)oxy)cyclohexyl)azetidin-3-yl)-5-fluorobenzonitrile] the “IKZF2 % Degradation @ 1 μM” value [2] was <15% and the EC50 [3] was 0.022 µM.
With `N#Cc1ccc(C2CN([C@@H]3CCCC[C@@H]3Oc3ccc4c(c3)CN(C3CCC(=O)NC3=O)C4=O)C2)c(F)c1` (mixture of isomers) [Compound 115, Rac-4-(1-((cis)-2-((2-(2,6-dioxopiperidin-3-yl)-1-oxoisoindolin-5-yl)oxy)cyclohexyl)azetidin-3-yl)-3-fluorobenzonitrile] the “IKZF2 % Degradation @ 1 μM” value [2] was 63.6% and the EC50 [3] was 0.012 µM.
With `O=C1CCC(N2Cc3cc(O[C@H]4CCCC[C@H]4N4CC(c5ccccc5)C4)ccc3C2=O)C(=O)N1` (stereo partly drawn) [Compound 128, 3-(1-oxo-5-(((1S,2R)-2-(3-phenylazetidin-1-yl)cyclohexyl)oxy)isoindolin-2-yl)piperidine-2,6-dione] the “IKZF2 % Degradation @ 1 μM” value [2] was <15% and the EC50 [3] was 0.018 µM.
In the case of `O=C1CCC(N2Cc3cc(OC4CCCCC4N4CC(c5cccc(OC(F)(F)F)c5)C4)ccc3C2=O)C(=O)N1` (centres unmarked) [Compound 67, 3-(1-oxo-5-((2-(3-(3-(trifluoromethoxy)phenyl)azetidin-1-yl)cyclohexyl)oxy)isoindolin-2-yl)piperidine-2,6-dione], the “IKZF2 % Degradation @ 1 μM” value [2] is reported as 37.8% and the EC50 [3] is reported as 0.017 µM.
With `N#Cc1ccc(C2CN([C@@H]3CCCC[C@@H]3Oc3ccc4c(c3)CN(C3CCC(=O)NC3=O)C4=O)C2)c(Cl)c1` (mixture of isomers) [Compound 75, Rac-3-chloro-4-(1-((cis)-2-((2-(2,6-dioxopiperidin-3-yl)-1-oxoisoindolin-5-yl)oxy)cyclohexyl)azetidin-3-yl)benzonitrile] the “IKZF2 % Degradation @ 1 μM” value [2] was 36.8% and the EC50 [3] was 0.012 µM.
For `O=C1CCC(N2Cc3cc(OC4CCCCC4N4CC(c5ccccc5C(F)(F)F)C4)ccc3C2=O)C(=O)N1` (centres unmarked) [Compound 69, 3-(1-oxo-5-((2-(3-(2-(trifluoromethyl)phenyl)azetidin-1-yl)cyclohexyl)oxy)isoindolin-2-yl)piperidine-2,6-dione], the “IKZF2 % Degradation @ 1 μM” value [2] was <15% and the EC50 [3] was 0.025 µM.
In the case of `O=C1CCC(N2Cc3cc(O[C@@H]4CCCC[C@@H]4N4CC(O)(c5ccccc5)C4)ccc3C2=O)C(=O)N1` (mixture of isomers) [Compound 97, Rac-3-(5-(((cis)-2-(3-hydroxy-3-phenylazetidin-1-yl)cyclohexyl)oxy)-1-oxoisoindolin-2-yl)piperidine-2,6-dione], the “IKZF2 % Degradation @ 1 μM” value [2] is reported as <15% and the EC50 [3] is reported as 0.031 µM.
`N#Cc1cc(F)ccc1C1CN([C@H]2CCCC[C@@H]2Oc2ccc3c(c2)CN(C2CCC(=O)NC2=O)C3=O)C1` (mixture of isomers) [Compound 101, Rac-2-(1-((trans)-2-((2-(2,6-dioxopiperidin-3-yl)-1-oxoisoindolin-5-yl)oxy)cyclohexyl)azetidin-3-yl)-5-fluorobenzonitrile] was tested, and the “IKZF2 % Degradation @ 1 μM” value [2] was 79.2% and the EC50 [3] was 0.033 µM.
For `O=C1CCC(N2Cc3cc(O[C@H]4CCC[C@@H]4N4CCC(c5ccccc5)CC4)ccc3C2=O)C(=O)N1` (stereo partly drawn) [Compound 72, 3-(1-oxo-5-(((1S,2S)-2-(4-phenylpiperidin-1-yl)cyclopentyl)oxy)isoindolin-2-yl)piperidine-2,6-dione], the “IKZF2 % Degradation @ 1 μM” value [2] was 38.2% and the EC50 [3] was 0.007 µM.
For `N#Cc1ccc(C2CN([C@H]3CCCC[C@@H]3Oc3ccc4c(c3)CN(C3CCC(=O)NC3=O)C4=O)C2)c(Cl)c1` (single isomer, unassigned) [Compound 48], the “IKZF2 % Degradation @ 1 μM” value [2] was 78.9% and the EC50 [3] was 0.045 µM.
With `O=C1CCC(N2Cc3cc(O[C@@H]4CCCC[C@@H]4N4CC(c5ccc(C(F)(F)F)cc5)C4)ccc3C2=O)C(=O)N1` (stereo partly drawn) [Compound 59, 3-(1-oxo-5-(((1R,2S)-2-(3-(4-(trifluoromethyl)phenyl)azetidin-1-yl)cyclohexyl)oxy)isoindolin-2-yl)piperidine-2,6-dione] the “IKZF2 % Degradation @ 1 μM” value [2] was 32.7% and the EC50 [3] was 0.011 µM.
With `O=C1CCC(N2Cc3cc(O[C@H]4CCCC[C@@H]4N4CC(c5cccc(OC(F)F)c5)C4)ccc3C2=O)C(=O)N1` (stereo partly drawn) [Compound 80, 3-(5-(((1S,2S)-2-(3-(3-(difluoromethoxy)phenyl)azetidin-1-yl)cyclohexyl)oxy)-1-oxoisoindolin-2-yl)piperidine-2,6-dione] the “IKZF2 % Degradation @ 1 μM” value [2] was 76.7% and the EC50 [3] was 0.008 µM.
With `O=C1CCC(N2Cc3cc(O[C@@H]4CCCC[C@@H]4N4CC(c5ccc(OC(F)(F)F)cc5)C4)ccc3C2=O)C(=O)N1` (mixture of isomers) [Compound 61, Rac-3-(1-oxo-5-(((cis)-2-(3-(4-(trifluoromethoxy)phenyl)azetidin-1-yl)cyclohexyl)oxy)isoindolin-2-yl)piperidine-2,6-dione] the “IKZF2 % Degradation @ 1 μM” value [2] was 36.3% and the EC50 [3] was 0.014 µM.
For `N#Cc1ccccc1C1CN([C@H]2CCCC[C@@H]2Oc2ccc3c(c2)CN(C2CCC(=O)NC2=O)C3=O)C1` (mixture of isomers) [Compound 108, Rac-2-(1-((trans)-2-((2-(2,6-dioxopiperidin-3-yl)-1-oxoisoindolin-5-yl)oxy)cyclohexyl)azetidin-3-yl)benzonitrile], the “IKZF2 % Degradation @ 1 μM” value [2] was 71.3% and the EC50 [3] was 0.058 µM.
With `N#Cc1ccc(C2CN([C@H]3CCCC[C@H]3Oc3ccc4c(c3)CN(C3CCC(=O)NC3=O)C4=O)C2)c(Cl)c1` (stereo partly drawn) [Compound 49, 3-chloro-4-(1-((1S,2R)-2-((2-(2,6-dioxopiperidin-3-yl)-1-oxoisoindolin-5-yl)oxy)cyclohexyl)azetidin-3-yl)benzonitrile] the “IKZF2 % Degradation @ 1 μM” value [2] was <15% and the EC50 [3] was 0.011 µM.
In the case of `N#Cc1ccc(C2CN([C@H]3CCCC[C@@H]3Oc3ccc4c(c3)CN(C3CCC(=O)NC3=O)C4=O)C2)c(Cl)c1` (single isomer, unassigned) [Compound 47], the “IKZF2 % Degradation @ 1 μM” value [2] is reported as 86.7% and the EC50 [3] is reported as 0.005 µM.
In the case of `COc1cccc(C2CN([C@H]3CCCC[C@@H]3Oc3ccc4c(c3)CN(C3CCC(=O)NC3=O)C4=O)C2)c1` (stereo partly drawn) [Compound 126, 3-(5-(((1S,2S)-2-(3-(3-methoxyphenyl)azetidin-1-yl)cyclohexyl)oxy)-1-oxoisoindolin-2-yl)piperidine-2,6-dione], the “IKZF2 % Degradation @ 1 μM” value [2] is reported as 84.3% and the EC50 [3] is reported as 0.005 µM.
`N#Cc1cc(F)ccc1C1CN([C@@H]2CCC[C@H]2Oc2ccc3c(c2)CN(C24CC(C2)C(=O)NC4=O)C3=O)C1` (racemic) [Compound 71, Rac-2-(1-((trans)-2-((2-(2,4-dioxo-3-azabicyclo[3.1.1]heptan-1-yl)-1-oxoisoindolin-5-yl)oxy)cyclopentyl)azetidin-3-yl)-5-fluorobenzonitrile] was tested, and the “IKZF2 % Degradation @ 1 μM” value [2] was <15% and the EC50 [3] was 0.037 µM.
